Consider 18 molecules from PubChem BioAssay (NCI).

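Assay format: 96-well plates, 48-hour exposure. Abbreviation: GI50, concentration required for 50% inhibition of growth. TGI denotes the concentration required for complete inhibition of growth.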

Test systems include ACHN renal; K-562 leukemia; LXFL 529 NSCLC; M14 melanoma; OVCAR-3 ovarian; SF-539 CNS; SK-OV-3 ovarian; SNB-75 CNS; UACC-257 melanoma; LOX IMVI melanoma.
Common to all, as to assay: NCI-60 cell line screen, 48 h

With `Cc1cccc2ns[s+]c12`, the TGI in the assay with ACHN renal is > 100 µM; in the assay with K-562 leukemia, 81.4 µM; with LXFL 529 NSCLC, > 100 µM; with M14 melanoma, > 100 µM; with OVCAR-3 ovarian, > 100 µM; with SF-539 CNS, > 100 µM. Further, the TGI in the assay with SK-OV-3 ovarian, in the assay on SNB-75 CNS and with UACC-257 melanoma was > 100 µM each time.

Consider `CN1C(=N\S(=O)(=O)c2ccc(Cl)cc2)/C(=N/N=P(c2ccccc2)(c2ccccc2)c2ccccc2)c2ccccc21`, for which the TGI in the assay on ACHN renal, in the assay with K-562 leukemia, with LXFL 529 NSCLC, in the assay with M14 melanoma, in the assay with OVCAR-3 ovarian and in the assay with SF-539 CNS was > 100 µM each time. The TGI with SK-OV-3 ovarian, with SNB-75 CNS and in the assay on UACC-257 melanoma was > 100 µM throughout.

With `O=C(Cl)c1cc([N+](=O)[O-])cc([N+](=O)[O-])c1`, the TGI with ACHN renal, with K-562 leukemia, in the assay on LOX IMVI melanoma, in the assay with LXFL 529 NSCLC, in the assay with M14 melanoma and in the assay on SF-539 CNS was > 100 µM in each case. In addition, the TGI in the assay with SK-OV-3 ovarian, with SNB-75 CNS and in the assay with UACC-257 melanoma was > 100 µM in each case.

Turning to `Cc1ccc(CCNC(=S)SCC(NC(=O)CCC(N)C(=O)O)C(=O)NCC(=O)O)cc1` (configuration not stated), the TGI in the assay with ACHN renal is 4.17 µM; with K-562 leukemia, 2.5 µM; in the assay on LOX IMVI melanoma, 1.55 µM; in the assay with LXFL 529 NSCLC, 2.12 µM; in the assay on M14 melanoma, 2.56 µM; with OVCAR-3 ovarian it was 5.27 µM. The TGI in the assay on SF-539 CNS was 2.97 µM; with SK-OV-3 ovarian, 19.2 µM; with SNB-75 CNS it was 3.44 µM; in the assay on UACC-257 melanoma, 4.47 µM.

In the case of `O=c1[nH]c2cccccc-2c1-c1nc2ccccc2[nH]1`, the TGI in the assay with ACHN renal is 51.6 µM; in the assay with K-562 leukemia it was > 100 µM; with LOX IMVI melanoma, > 100 µM; in the assay with LXFL 529 NSCLC, > 100 µM; with M14 melanoma it was > 100 µM; with SF-539 CNS, 54.3 µM. The TGI in the assay with SK-OV-3 ovarian is 51.2 µM; in the assay on SNB-75 CNS, 30.2 µM; in the assay on UACC-257 melanoma it was > 100 µM.

As to `COc1ccccc1C1C(Cl)C(=O)N1NC(=O)Cc1ccccc1` (configuration not stated), the TGI with ACHN renal, in the assay on K-562 leukemia, in the assay with LOX IMVI melanoma, in the assay with LXFL 529 NSCLC, with M14 melanoma and with OVCAR-3 ovarian was > 100 µM each time. For the same molecule, the TGI with SK-OV-3 ovarian, in the assay on SNB-75 CNS and in the assay with UACC-257 melanoma was > 100 µM in each case.

For the molecule `C[N+](C)(C)CC(=O)N/N=C(\C(=O)Nc1ccc(Cl)cc1)C1C(=O)N(c2ccccc2)N=C1N` (configuration not stated), the TGI in the assay with ACHN renal, in the assay with K-562 leukemia, in the assay on LOX IMVI melanoma, with LXFL 529 NSCLC, with M14 melanoma and in the assay with OVCAR-3 ovarian was > 100 µM in each case. Moreover, the TGI in the assay with SF-539 CNS, in the assay on SK-OV-3 ovarian, with SNB-75 CNS and with UACC-257 melanoma was > 100 µM throughout.

`CC(=O)NC(Cc1ccccc1)C(=S)N1CCCC1` (configuration not stated): the TGI with ACHN renal, in the assay on K-562 leukemia, in the assay on LOX IMVI melanoma, in the assay on LXFL 529 NSCLC, in the assay with M14 melanoma and in the assay with OVCAR-3 ovarian was > 100 µM in each case. In addition, the TGI in the assay on SF-539 CNS, in the assay on SK-OV-3 ovarian, with SNB-75 CNS and with UACC-257 melanoma was > 100 µM in each case.

For `Nc1nc(NC(=O)C2=NS(=O)(=O)c3cc(S(N)(=O)=O)c(Cl)cc3N2)n[nH]1`, the TGI in the assay on ACHN renal, in the assay with K-562 leukemia, in the assay on LOX IMVI melanoma, with LXFL 529 NSCLC, with M14 melanoma and in the assay with OVCAR-3 ovarian was > 100 µM each time. For the same molecule, the TGI in the assay on SF-539 CNS, with SK-OV-3 ovarian, in the assay on SNB-75 CNS and in the assay on UACC-257 melanoma was > 100 µM throughout.

For the molecule `COc1cc(/C=C/C(=O)C(C)(C)C)cc(OC)c1OC`, the TGI is > 100 µM with ACHN renal; > 100 µM in the assay with K-562 leukemia; 44 µM in the assay with LOX IMVI melanoma; 93.5 µM in the assay with LXFL 529 NSCLC; > 100 µM with M14 melanoma; > 100 µM with OVCAR-3 ovarian. Besides, the TGI with SF-539 CNS is > 100 µM; in the assay on SK-OV-3 ovarian it was > 100 µM; in the assay with SNB-75 CNS, 68.5 µM; in the assay on UACC-257 melanoma it was > 100 µM.

For `CC(C)CCC[C@@H](C)[C@H]1CC[C@H]2[C@@H]3CC=C4CC(OCCCCN(O)CCCSC5OC(CO)C(O)C(O)C5O)CC[C@]4(C)[C@H]3CC[C@]12C` (some centres not stated), the TGI in the assay on ACHN renal is > 100 µM; in the assay on K-562 leukemia, > 100 µM; with LOX IMVI melanoma, 50.7 µM; with LXFL 529 NSCLC, 47.3 µM; with M14 melanoma, 56.3 µM; with SF-539 CNS, 32.8 µM. In addition, the TGI in the assay with SK-OV-3 ovarian, with SNB-75 CNS and with UACC-257 melanoma was > 100 µM throughout.

`O=C(CCc1nnc2s/c(=C\c3ccc(Cl)cc3Cl)c(=O)n12)Nc1cc(Cl)c(Cl)cc1Cl`: the GI50 with ACHN renal, with K-562 leukemia, in the assay with LXFL 529 NSCLC, in the assay with M14 melanoma, in the assay with OVCAR-3 ovarian and with SF-539 CNS was > 100 µM in each case. The GI50 in the assay on SK-OV-3 ovarian and in the assay with UACC-257 melanoma was > 100 µM in each case. Further, the TGI in the assay on ACHN renal, with K-562 leukemia, in the assay on LXFL 529 NSCLC, in the assay on M14 melanoma, with OVCAR-3 ovarian and in the assay with SF-539 CNS was > 100 µM in each case. The TGI in the assay with SK-OV-3 ovarian, in the assay with SNB-75 CNS and with UACC-257 melanoma was > 100 µM throughout.

Regarding `COc1cc2c(oc(=O)c3c4oc([Si](C)(C)C)cc4cc(OC)c23)c2cccc(O)c12`, the TGI in the assay on ACHN renal, in the assay with K-562 leukemia, in the assay on LOX IMVI melanoma, in the assay on LXFL 529 NSCLC, in the assay with M14 melanoma and with OVCAR-3 ovarian was > 100 µM throughout. Also, the TGI in the assay with SF-539 CNS, in the assay with SK-OV-3 ovarian, in the assay with SNB-75 CNS and in the assay with UACC-257 melanoma was > 100 µM throughout.

For the molecule `O=C(N/N=C/c1cc(-c2ccccc2Cl)c(-c2ccccc2Cl)o1)c1ccncc1`, the TGI in the assay on ACHN renal, in the assay with LOX IMVI melanoma, in the assay with LXFL 529 NSCLC, in the assay on M14 melanoma, in the assay with OVCAR-3 ovarian and in the assay on SF-539 CNS was > 100 µM each time. Also, the TGI with SK-OV-3 ovarian, in the assay with SNB-75 CNS and in the assay with UACC-257 melanoma was > 100 µM each time.

With `CC(=O)CC(=O)Nn1c(-c2cccs2)nc2ccc(I)cc2c1=O`, the TGI is > 100 µM in the assay with ACHN renal; > 100 µM in the assay with K-562 leukemia; > 90 µM in the assay with LOX IMVI melanoma; > 100 µM in the assay on M14 melanoma; > 78.5 µM in the assay on OVCAR-3 ovarian; 34.4 µM in the assay with SF-539 CNS. The TGI in the assay with SK-OV-3 ovarian, with SNB-75 CNS and in the assay with UACC-257 melanoma was > 100 µM throughout. For the same molecule, in the assay on SF-539 CNS, the GI50 was 13.8 µM.

Consider `CCO/C=N/C1=C(C#N)C(c2ccc(OC)c(OC)c2)c2c(-c3ccccc3)nn(-c3ccccc3)c2O1` (configuration not stated), for which the TGI with ACHN renal amounted to 28.3 µM; with K-562 leukemia it was 27 µM; in the assay on LOX IMVI melanoma, 31 µM; in the assay on M14 melanoma it was 60 µM; with OVCAR-3 ovarian it was 77.1 µM; in the assay with SF-539 CNS, 33.7 µM. The TGI in the assay on SK-OV-3 ovarian was 60.2 µM; in the assay on SNB-75 CNS it was 34.2 µM; with UACC-257 melanoma it was > 100 µM.

On to `C=CC(C)(C)c1cc([C@@H]2COc3cc(O)ccc3C2=O)c(O)c(OC)c1OC`, for which the TGI in the assay on ACHN renal was 33.7 µM; in the assay on K-562 leukemia, > 100 µM; in the assay with LOX IMVI melanoma, 37.9 µM; in the assay on M14 melanoma, 31.2 µM; with OVCAR-3 ovarian it was 23.3 µM; in the assay on SF-539 CNS, 44 µM. In addition, the TGI with SK-OV-3 ovarian was found to be 36.7 µM; in the assay on SNB-75 CNS, 25.6 µM; with UACC-257 melanoma, 44.9 µM.

As for `O=C1CSC(c2ccc(Cl)cc2)N1c1ccc(-n2c(-c3ccccc3)nc3ccccc3c2=O)cc1` (configuration not stated), the TGI with ACHN renal, with K-562 leukemia, in the assay with LOX IMVI melanoma, in the assay with M14 melanoma, with OVCAR-3 ovarian and in the assay with SF-539 CNS was > 100 µM each time. For the same molecule, the TGI was > 100 µM with SK-OV-3 ovarian, 69 µM in the assay on SNB-75 CNS and > 100 µM in the assay on UACC-257 melanoma.
